Data taken from US20240239785A1, “SUBSTITUTED 2-(2,6-DIOXOPIPERIDIN-3-YL)-5-(1-PIPERIDIN-4-YL)ISOINDOLINE-1,3-DIONE DERIVATIVES AND USES THEREOF” (Neomorph, Inc., priority 2021, published 2024).
Counter-ions that a name gives are not always drawn. Like-named read-outs stand apart in the source and are kept apart here.

Assays:
IKZF2 = biological target: T1, IKZF2 (Homo sapiens, UniProt Q96SW2+Q9UKS7); experiment: MOLT4 IKZF2 HiBit assay; format: cell-based; conditions: MOLT4 IKZF2 HiBit cells; for DC50: 6 hours incubation, 10-point dose response from 30 μM; for Dmax at 30 µM: MOLT-4, 6 hr (Dmax), read-out: % reduction of IKZF2 @ 30 μM (6 hr)
T1 construct: endogenous in cells; host or cells: MOLT4 (CRISPR/Cas9 HiBit knock-in at the IKZF2 locus)
Procedure: MOLT4 IKZF2 HiBit Assay Protocol:
This protocol used MOLT4 cells that were engineered using CRISPR/Cas9-mediated genomic insertion of HiBit, tagged to the N terminus of the IKZF2 coding sequence. Day 1. A 10-point dose response was created starting from 30 μM down to InM using a Tecan D300e. Next was added 8,000 cells/well of the MOLT4 IKZF2 HiBit cells to the compound plate. The compounds plate was incubated for 6 hours. Day 2. Nano-Glo HiBit Lytic Buffer/Nano-Glo HiBit Lytic substrate/LgBit Protein mix was added to each well and the compound plate was incubated for 15 minutes. Finally, luminescence signal was read using a BMG Labtech PHERAstar FSX. Data was normalized to DMSO and graphed using GraphPad Prism to determine the concentration points at which 50% of HiBiT-Helios degradation was achieved by each compound. The extent of degradation (range of luminescence) from the highest to lowest concentration points was calculated to determine Dmax.

hERG = hERG (Homo sapiens, UniProt Q12809); experiment: hERG IC50
Sequence of hERG (Q12809 whole entry): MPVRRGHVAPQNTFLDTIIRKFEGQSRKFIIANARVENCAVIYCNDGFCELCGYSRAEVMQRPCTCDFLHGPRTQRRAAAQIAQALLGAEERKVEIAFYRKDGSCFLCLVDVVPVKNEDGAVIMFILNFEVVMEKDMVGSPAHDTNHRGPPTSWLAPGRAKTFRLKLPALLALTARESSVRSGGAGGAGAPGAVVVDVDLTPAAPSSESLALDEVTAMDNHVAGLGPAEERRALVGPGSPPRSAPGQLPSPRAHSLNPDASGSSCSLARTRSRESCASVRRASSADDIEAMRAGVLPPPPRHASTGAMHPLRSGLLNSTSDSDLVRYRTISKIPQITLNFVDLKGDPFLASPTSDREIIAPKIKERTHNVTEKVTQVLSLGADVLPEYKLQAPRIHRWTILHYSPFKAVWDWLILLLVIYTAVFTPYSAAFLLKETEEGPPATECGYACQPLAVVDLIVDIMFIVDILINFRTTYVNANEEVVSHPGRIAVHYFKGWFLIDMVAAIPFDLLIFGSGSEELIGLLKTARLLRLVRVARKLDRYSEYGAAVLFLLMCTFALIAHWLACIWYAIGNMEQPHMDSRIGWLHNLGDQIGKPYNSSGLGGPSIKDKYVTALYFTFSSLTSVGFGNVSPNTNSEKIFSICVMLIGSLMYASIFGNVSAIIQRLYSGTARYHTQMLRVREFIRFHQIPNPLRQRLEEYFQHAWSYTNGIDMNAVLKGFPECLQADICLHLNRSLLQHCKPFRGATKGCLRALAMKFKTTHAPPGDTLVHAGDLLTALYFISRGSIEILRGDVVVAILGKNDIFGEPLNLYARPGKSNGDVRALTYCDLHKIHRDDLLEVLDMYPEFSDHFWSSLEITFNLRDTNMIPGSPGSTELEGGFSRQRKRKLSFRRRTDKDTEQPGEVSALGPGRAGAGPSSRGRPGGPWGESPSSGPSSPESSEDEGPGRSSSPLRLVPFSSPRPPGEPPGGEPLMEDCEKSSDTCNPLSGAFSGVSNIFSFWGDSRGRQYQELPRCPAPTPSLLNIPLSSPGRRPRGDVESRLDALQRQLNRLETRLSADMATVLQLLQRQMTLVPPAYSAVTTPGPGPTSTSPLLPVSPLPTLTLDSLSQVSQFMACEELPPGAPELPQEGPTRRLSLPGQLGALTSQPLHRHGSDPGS

T1 sequence (Q9UKS7 whole entry): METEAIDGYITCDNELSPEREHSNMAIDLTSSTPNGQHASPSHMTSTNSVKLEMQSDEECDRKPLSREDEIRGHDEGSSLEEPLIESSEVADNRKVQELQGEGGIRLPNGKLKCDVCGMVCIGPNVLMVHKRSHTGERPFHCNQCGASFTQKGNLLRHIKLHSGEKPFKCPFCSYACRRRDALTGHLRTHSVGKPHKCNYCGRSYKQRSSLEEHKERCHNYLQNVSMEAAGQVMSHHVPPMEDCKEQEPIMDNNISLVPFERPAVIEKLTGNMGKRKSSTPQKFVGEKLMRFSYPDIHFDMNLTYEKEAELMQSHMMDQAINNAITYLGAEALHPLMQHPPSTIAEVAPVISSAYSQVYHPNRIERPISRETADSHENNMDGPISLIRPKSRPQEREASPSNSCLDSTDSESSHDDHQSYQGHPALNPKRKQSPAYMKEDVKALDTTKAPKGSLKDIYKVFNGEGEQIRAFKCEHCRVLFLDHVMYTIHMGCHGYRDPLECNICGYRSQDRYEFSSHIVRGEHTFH
T1 sequence (Q96SW2 whole entry): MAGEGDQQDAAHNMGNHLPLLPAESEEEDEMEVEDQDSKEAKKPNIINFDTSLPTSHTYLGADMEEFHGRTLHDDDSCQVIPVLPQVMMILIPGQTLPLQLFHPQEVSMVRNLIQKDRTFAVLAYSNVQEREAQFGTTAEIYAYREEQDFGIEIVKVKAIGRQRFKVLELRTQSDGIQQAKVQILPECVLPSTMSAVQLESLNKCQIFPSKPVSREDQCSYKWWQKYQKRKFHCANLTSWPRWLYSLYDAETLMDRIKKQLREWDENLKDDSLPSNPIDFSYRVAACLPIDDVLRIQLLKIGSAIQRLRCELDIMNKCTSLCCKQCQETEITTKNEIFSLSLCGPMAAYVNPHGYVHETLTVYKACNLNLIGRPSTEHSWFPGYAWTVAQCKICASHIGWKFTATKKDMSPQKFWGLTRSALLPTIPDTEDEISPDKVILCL
T1 sequence (Q16531 whole entry partner): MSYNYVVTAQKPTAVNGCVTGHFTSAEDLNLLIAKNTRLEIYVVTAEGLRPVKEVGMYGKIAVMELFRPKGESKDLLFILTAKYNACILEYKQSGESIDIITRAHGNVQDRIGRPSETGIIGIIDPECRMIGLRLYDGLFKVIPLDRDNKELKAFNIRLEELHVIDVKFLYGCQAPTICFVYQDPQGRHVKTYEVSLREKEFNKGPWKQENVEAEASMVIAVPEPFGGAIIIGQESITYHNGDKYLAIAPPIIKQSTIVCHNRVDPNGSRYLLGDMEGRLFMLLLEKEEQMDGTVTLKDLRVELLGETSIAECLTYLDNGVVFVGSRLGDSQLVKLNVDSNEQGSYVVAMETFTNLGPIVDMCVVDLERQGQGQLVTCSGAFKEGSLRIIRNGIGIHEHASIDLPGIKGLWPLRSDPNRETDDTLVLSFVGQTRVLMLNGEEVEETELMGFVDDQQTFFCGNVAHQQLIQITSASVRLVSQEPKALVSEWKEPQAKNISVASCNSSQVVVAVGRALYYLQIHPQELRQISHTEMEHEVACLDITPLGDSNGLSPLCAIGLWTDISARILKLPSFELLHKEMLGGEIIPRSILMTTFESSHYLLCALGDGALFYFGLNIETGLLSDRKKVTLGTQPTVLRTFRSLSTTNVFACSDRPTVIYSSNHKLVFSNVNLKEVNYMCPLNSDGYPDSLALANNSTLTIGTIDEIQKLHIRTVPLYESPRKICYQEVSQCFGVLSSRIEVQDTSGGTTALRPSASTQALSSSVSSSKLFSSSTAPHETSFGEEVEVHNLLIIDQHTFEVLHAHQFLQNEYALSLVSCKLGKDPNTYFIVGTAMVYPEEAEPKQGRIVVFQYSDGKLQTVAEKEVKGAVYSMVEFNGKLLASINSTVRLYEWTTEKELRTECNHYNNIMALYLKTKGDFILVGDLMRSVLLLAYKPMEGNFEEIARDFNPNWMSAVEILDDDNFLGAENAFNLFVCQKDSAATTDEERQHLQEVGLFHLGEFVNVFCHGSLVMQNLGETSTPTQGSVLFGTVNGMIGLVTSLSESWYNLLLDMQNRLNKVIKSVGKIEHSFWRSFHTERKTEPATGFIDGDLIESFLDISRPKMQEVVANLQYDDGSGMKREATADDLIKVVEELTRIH

Row | Structure (SMILES) | DC50 (IKZF2) [nM] | Dmax at 30 µM (IKZF2) [%] | IC50 (hERG) [nM] | IC50 (hERG; human) [nM]
1 | O=C1CCC(N2C(=O)c3ccc(C4(O)CCN(C5CCc6ncccc65)CC4)cc3C2=O)C(=O)N1 (stereo not shown) [Compound 7, 5-(1-{5H,6H,7H-cyclopenta[b]pyridin-5-yl}-4-hydroxypiperidin-4-yl)-2-(2,6-dioxopiperidin-3-yl)-2,3-dihydro-1H-isoindole-1,3-dione, HCl salt] | 9 | 90 | > 30000 | –
2 | CC1CC(O)(c2ccc3c(c2)C(=O)N(C2CCC(=O)NC2=O)C3=O)CCN1Cc1ccccc1 (stereo not shown) [Compound 15, 5-(1-benzyl-4-hydroxy-2-methylpiperidin-4-yl)-2-(2,6-dioxopiperidin-3-yl)-2,3-dihydro-1H-isoindole-1,3-dione] | 12 | 66 | > 30000 | –
3 | O=C1CCC(N2C(=O)c3ccc(C4(O)CCN(Cc5ccc(F)c(F)c5)CC4)cc3C2=O)C(=O)N1 (stereo not shown) [Compound 60, 5-{1-[(3,4-difluorophenyl)methyl]-4-hydroxypiperidin-4-yl}-2-(2,6-dioxopiperidin-3-yl)-2,3-dihydro-1H-isoindole-1,3-dione, HCl salt] | 6 | 80 | 23000 | –
4 | O=C1CCC(N2C(=O)c3ccc(C4(O)CCN(Cc5ccc6scnc6c5)CC4)cc3C2=O)C(=O)N1 (stereo not shown) [Compound 111, 5-{1-[(1,3-benzothiazol-5-yl)methyl]-4-hydroxypiperidin-4-yl}-2-(2,6-dioxopiperidin-3-yl)-2,3-dihydro-1H-isoindole-1,3-dione, HCl salt] | 5 | 83 | > 30000 | –
5 | O=C1CCC(N2C(=O)c3ccc(C4(O)CCN(Cc5ccc(F)cc5)CC4)c(F)c3C2=O)C(=O)N1 (stereo not shown) [Compound 132, 2-(2,6-dioxopiperidin-3-yl)-4-fluoro-5-(1-(4-fluorobenzyl)-4-hydroxypiperidin-4-yl)isoindoline-1,3-dione] | 7 | 79 | – | 30000
6 | CCCN1CCC(O)(c2ccc3c(c2F)C(=O)N(C2CCC(=O)NC2=O)C3=O)CC1 (stereo not shown) [Compound 148, 2-(2,6-dioxopiperidin-3-yl)-4-fluoro-5-(4-hydroxy-1-propylpiperidin-4-yl)-2,3-dihydro-1H-isoindole-1,3-dione, HCl salt] | 30 | 73 | – | –
7 | O=C1CCC(N2C(=O)c3ccc(C4(O)CCN(CC(O)c5ccccc5)CC4)cc3C2=O)C(=O)N1 (stereo not shown) [Compound 149, 2-(2,6-dioxopiperidin-3-yl)-5-(4-hydroxy-1-(2-hydroxy-2-phenylethyl)piperidin-4-yl)isoindoline-1,3-dione] | 22 | 76 | – | –
